Calls of active or inactive are those of the source. No cut-off for these calls is given here.
What was measured:
[1] = test system: MDA-MB-436; assay: Induction of apoptosis in human MDA-MB-436 cells assessed as increase in caspase-3 cleavage after 12 to 36 hrs by Western blot method; assay type: functional, cell-based
[2] = test system: MDA-MB-436; assay: Induction of apoptosis in human MDA-MB-436 cells assessed as increase in caspase-8 cleavage after 12 to 36 hrs by Western blot method; assay type: functional, cell-based
[3] = test system: Mus musculus; assay: Toxicity in BALB/c nude mouse xenografted with human MDA-MB-436 cells assessed as body weight loss at 50 to 100 mg/kg, ig qd measured every 3 days for 24 days during compound dosing; assay type: organism-based; details: in vivo, po, 576 h
[4] = test system: MDA-MB-436; assay: Induction of apoptosis in human MDA-MB-436 cells assessed as membrane blebbing by phase contrast microscopy; assay type: functional, cell-based
[5] = test system: Mus musculus; assay: Toxicity in BALB/c nude mouse xenografted with human MDA-MB-436 cells assessed as body weight loss at 25 mg/kg, ig qd measured every 3 days for 24 days during compound dosing; assay type: organism-based; details: in vivo, po, 576 h
[6] = test system: MDA-MB-436; assay: Antitumor activity against human MDA-MB-436 cells xenografted in ig dosed BALB/c nude mouse assessed as tumor growth inhibition administered once a day measured every 3 days for 24 days during compound dosing; assay type: functional, organism-based
[7] = test system: MDA-MB-231; assay: Induction of apoptosis in human MDA-MB-231 cells xenografted in BALB/c nude mouse assessed as increase in caspase-3 cleavage at 25 to 100 mg/kg, ig qd measured after 24 days by Western blot method; assay type: functional, organism-based
[8] = test system: MDA-MB-436; assay: Antiproliferative activity against human MDA-MB-436 cells assessed as decrease in cell viability after 24 hrs by MTT assay; assay type: functional, cell-based; details: MDA-MB-436, 24 h
[9] = test system: MDA-MB-436; assay: Induction of apoptosis in human MDA-MB-436 cells assessed as formation of apoptotic bodies by phase contrast microscopy; assay type: functional, cell-based
[10] = test system: Mus musculus; assay: Toxicity in BALB/c nude mouse xenografted with human MDA-MB-436 cells assessed as effect on kidney weight at 25 to 100 mg/kg, ig qd measured after 24 days; assay type: organism-based; details: in vivo, po, 576 h
[11] = test system: MDA-MB-231; assay: Induction of apoptosis in human MDA-MB-231 cells xenografted in BALB/c nude mouse assessed as increase in PARP cleavage at 25 to 100 mg/kg, ig qd measured after 24 days by Western blot method; assay type: functional, organism-based
[12] = test system: MDA-MB-436; assay: Induction of apoptosis in human MDA-MB-436 cells assessed as loss of mitochondrial membrane potential after 12 to 36 hrs by rhodamine123 staining-based flow cytometric method; assay type: functional, cell-based
[13] = test system: Mus musculus; assay: Toxicity in BALB/c nude mouse xenografted with human MDA-MB-231 cells assessed as decrease in spleen weight at 100 mg/kg, ig qd measured after 24 days; assay type: organism-based; details: in vivo, po, 576 h
[14] = test system: Mus musculus; assay: In vivo inhibition of eEF2K phosphorylation in tumor of BALB/c nude mouse xenografted with human MDA-MB-231 cells at 25 to 100 mg/kg, ig qd measured after 24 days by Western blot method; assay type: functional, organism-based
[15] = test system: MDA-MB-231; assay: Antitumor activity against human MDA-MB-231 cells xenografted in ig dosed BALB/c nude mouse assessed as tumor growth inhibition administered once a day measured every 3 days for 24 days during compound dosing; assay type: functional, organism-based
[16] = test system: MDA-MB-231; assay: Induction of apoptosis in human MDA-MB-231 cells assessed as upregulation of Bax expression after 12 to 36 hrs by Western blot method; assay type: functional, cell-based
[17] = test system: MDA-MB-436; assay: Induction of apoptosis in human MDA-MB-436 cells assessed as increase in PARP cleavage after 12 to 36 hrs by Western blot method; assay type: functional, cell-based
[18] = test system: MDA-MB-231; assay: Induction of apoptosis in human MDA-MB-231 cells assessed as increase in PARP cleavage after 12 to 36 hrs by Western blot method; assay type: functional, cell-based
[19] = test system: MDA-MB-231; assay: Induction of apoptosis in human MDA-MB-231 cells assessed as increase in caspase-3 cleavage after 12 to 36 hrs by Western blot method; assay type: functional, cell-based
[20] = test system: MDA-MB-231; assay: Antiproliferative activity against human MDA-MB-231 cells xenografted in BALB/c nude mouse at 25 to 100 mg/kg, ig qd measured after 24 days by Ki-67 staining-based assay; assay type: functional, organism-based
[21] = test system: Mus musculus; assay: Toxicity in BALB/c nude mouse xenografted with human MDA-MB-231 cells assessed as body weight loss at 25 mg/kg, ig qd measured every 3 days for 24 days during compound dosing; assay type: organism-based; details: in vivo, po
[22] = test system: MDA-MB-231; assay: Induction of apoptosis in human MDA-MB-231 cells assessed as downregulation of Bcl-2 expression after 12 to 36 hrs by Western blot method; assay type: functional, cell-based
[23] = test system: MDA-MB-231; assay: Induction of apoptosis in human MDA-MB-231 cells assessed as formation of apoptotic bodies by phase contrast microscopy; assay type: functional, cell-based
[24] = test system: Mus musculus; assay: Toxicity in BALB/c nude mouse xenografted with human MDA-MB-231 cells assessed as body weight loss at 50 to 100 mg/kg, ig qd measured every 3 days for 24 days during compound dosing; assay type: organism-based; details: in vivo, po, 576 h
[25] = test system: Mus musculus; assay: Toxicity in BALB/c nude mouse xenografted with human MDA-MB-231 cells assessed as effect on kidney weight at 25 to 100 mg/kg, ig qd measured after 24 days; assay type: organism-based; details: in vivo, po, 576 h
[26] = test system: MDA-MB-231; assay: Induction of apoptosis in human MDA-MB-231 cells xenografted in BALB/c nude mouse at 25 to 100 mg/kg, ig qd measured after 24 days by TUNEL assay; assay type: functional, organism-based
[27] = test system: MDA-MB-436; assay: Induction of apoptosis in human MDA-MB-436 cells assessed as downregulation of Bcl-2 expression after 12 to 36 hrs by Western blot method; assay type: functional, cell-based
[28] = test system: MDA-MB-231; assay: Induction of apoptosis in human MDA-MB-231 cells assessed as increase in caspase-8 cleavage after 12 to 36 hrs by Western blot method; assay type: functional, cell-based
[29] = test system: MDA-MB-231; assay: Induction of apoptosis in human MDA-MB-231 cells assessed as DNA condensation after 12 to 36 hrs by Hoechst 33258 staining-based fluorescence assay; assay type: functional, cell-based
[30] = test system: Mus musculus; assay: Toxicity in BALB/c nude mouse xenografted with human MDA-MB-231 cells assessed as effect on liver weight at 25 to 100 mg/kg, ig qd measured after 24 days; assay type: organism-based; details: in vivo, po, 576 h
[31] = test system: Mus musculus; assay: Toxicity in BALB/c nude mouse xenografted with human MDA-MB-436 cells assessed as effect on liver weight at 25 to 100 mg/kg, ig qd measured after 24 days; assay type: organism-based; details: in vivo, po, 576 h
[32] = test system: Mus musculus; assay: Toxicity in BALB/c nude mouse xenografted with human MDA-MB-436 cells assessed as decrease in spleen weight at 100 mg/kg, ig qd measured after 24 days; assay type: organism-based; details: in vivo, po, 576 h
[33] = test system: MDA-MB-231; assay: Induction of apoptosis in human MDA-MB-231 cells assessed as loss of mitochondrial membrane potential after 12 to 36 hrs by rhodamine123 staining-based flow cytometric method; assay type: functional, cell-based
[34] = test system: MDA-MB-436; assay: Induction of apoptosis in human MDA-MB-436 cells assessed as upregulation of Bax expression after 12 to 36 hrs by Western blot method; assay type: functional, cell-based
[35] = test system: MDA-MB-231; assay: cells; details: Homo sapiens, MDA-MB-231, 24 h
Description: Antiproliferative activity against human MDA-MB-231 cells assessed as decrease in cell viability after 24 hrs by MTT assay

[36] = test system: Mus musculus; assay: In vivo inhibition of eEF2K phosphorylation in tumor of BALB/c nude mouse xenografted with human MDA-MB-231 cells at 25 to 100 mg/kg, ig qd measured after 24 days by immunohistochemical analysis; assay type: functional, organism-based
[37] = test system: MDA-MB-231; assay: Induction of apoptosis in human MDA-MB-231 cells assessed as membrane blebbing by phase contrast microscopy; assay type: functional, cell-based

IC50 [8]: 19.8 µM | IC50 [35]: 12.6 µM
Compound: N#Cc1ccc(S(=O)(=O)NC(CC(=O)O)c2ccc(Cl)cc2Cl)cc1 (configuration not stated)
Activity [1]: Active | Activity [2]: Active | Activity [3]: Non-Toxic | Activity [4]: Active | Activity [5]: Toxic | TGI [6]: Dose-dependent effect | Activity [7]: Active | Activity [9]: Active | Activity [10]: Non-Toxic | Activity [11]: Active | Activity [12]: Active | Activity [13]: Toxic | inhibition [14]: Active | TGI [15]: Dose-dependent effect | Activity [16]: Active | Activity [17]: Active | Activity [18]: Active | Activity [19]: Active | Activity [20]: Active | Activity [21]: Toxic | Activity [22]: Active | Activity [23]: Active | Activity [24]: Non-Toxic | Activity [25]: Non-Toxic | Activity [26]: Active | Activity [27]: Active | Activity [28]: Active | Activity [29]: Active | Activity [30]: Non-Toxic | Activity [31]: Non-Toxic | Activity [32]: Toxic | Activity [33]: Active | Activity [34]: Active | inhibition [36]: Active | Activity [37]: Active
